Measurements reported in patent US9822099B2, “Triazole derivatives” (priority 2013, dated 2017).
Marks after values point to notes of the source that are not given here.

What was measured:
[1] = system: Blumeria graminis f. sp. hordei; assay: Example G: Blumeria test (barley)/preventive; type: in vivo; conditions: 500 ppm of active ingredient, preventive, evaluated 7 days after inoculation
Protocol: (§1) Solvent: 49 parts by weight of N,N-dimethylacetamide Emulsifier: 1 part by weight of alkylaryl polyglycol ether To produce a suitable preparation of active compound, 1 part by weight of active compound or active compound combination is mixed with the stated amounts of solvent and emulsifier, and the concentrate is diluted with water to the desired concentration. To test for preventive activity, young plants are sprayed with the preparation of active compound or active compound combination at the stated rate of application. After the spray coating has been dried, the plants are dusted with spores of Blumeria graminis f. sp. hordei.

Leptosphaeria nodorum = assay: Example K: Leptosphaeria nodorum test (wheat)/preventive; type: in vivo; conditions: 500 ppm of active ingredient, preventive, evaluated 8 days after inoculation
Protocol: as §1, with “sprayed” for “dusted”, “a spore suspension” for “spores”, “Leptosphaeria nodorum.” for “Blumeria graminis f. sp. hordei.”

Venturia inaequalis = assay: Example O: Venturia test (apples)/preventive; type: in vivo; conditions: 100 ppm of active ingredient, preventive, evaluated 10 days after inoculation
Protocol: Solvent: 24.5 parts by weight of acetone • 24.5 parts by weight of dimethylacetamide Emulsifier: 1 part by weight of alkylaryl polyglycol ether To produce a suitable preparation of active compound, 1 part by weight of active compound is mixed with the stated amounts of solvent and emulsifier, and the concentrate is diluted with water to the desired concentration. To test for preventive activity, young plants are sprayed with the preparation of active compound at the stated rate of application.

[2] = pH 2.7
Sphaerotheca fuliginea = assay: Example E: in vivo preventive test on Sphaerotheca fuliginea (powdery mildew on cucurbits); conditions: gherkin plants, preventive spray, evaluated 15 days after inoculation
Protocol: (§2) The young plants of gherkin are treated by spraying the active ingredient prepared as described above. Control plants are treated only with an aqueous solution of acetone/Dimethyl sulfoxide/Tween®. After 24 hours, the plants are contaminated by spraying the leaves with an aqueous suspension of Sphaerotheca fuliginea spores.

[3] = system: Fusarium nivale (var. majus); assay: Example J: Fusarium nivale (var. majus)-test (wheat)/preventive; type: in vivo; conditions: 500 ppm of active ingredient, preventive, evaluated 5 days after inoculation
Protocol: (§3) Solvent: 49 parts by weight of N,N-dimethylacetamide
(§4) Emulsifier: 1 part by weight of alkylaryl polyglycol ether
(§5) To produce a suitable preparation of active compound, 1 part by weight of active compound or active compound combination is mixed with the stated amounts of solvent and emulsifier, and the concentrate is diluted with water to the desired concentration.
To test for preventive activity, young plants are sprayed with the preparation of active compound or active compound combination at the stated rate of application.
After the spray coating has been dried, the plants are slightly injured by using a sandblast and afterwards they are sprayed with a conidia suspension of Fusarium nivale (var. majus).
The plants are placed in the greenhouse under a translucent incubation cabinet at a temperature of approximately 10° C. and a relative atmospheric humidity of approximately 100%.
(§6) The test is evaluated 5 days after the inoculation. 0% means an efficacy which corresponds to that of the untreated control, while an efficacy of 100% means that no disease is observed.

Pyrenophora teres = assay: Example C: in vivo preventive test on Pyrenophora teres (net blotch on barley); conditions: barley plants, preventive spray, evaluated 14 days after inoculation
Protocol: as §2, with “barley” for “gherkin”, “Pyrenophora teres” for “Sphaerotheca fuliginea”

Fusarium culmorum = assay: Example H: Fusarium culmorum-test (wheat)/curative; type: in vivo; conditions: 500 ppm of active ingredient, curative, evaluated 5 days after inoculation
Protocol: as §3, §4, §5
To test for curative activity, young plants are slightly injured by using a sandblast and afterwards they are sprayed with a conidia suspension of Fusarium culmorum and placed for 24 hours in a greenhouse under a translucent incubation cabinet at a temperature of approximately 22° C. and a relative atmospheric humidity of approximately 100% and are subsequently sprayed with the preparation of active compound at the stated rate of application.
After the spray coating has been dried, the plants remain in the greenhouse under translucent incubation cloches at a temperature of approximately 22° C. and a relative atmospheric humidity of approximately 100%.
as §6

Uromyces appendiculatus = assay: Example F: in vivo preventive test on Uromyces appendiculatus (bean rust); conditions: bean plants, preventive spray, evaluated 11 days after inoculation
Protocol: as §2, with “bean” for “gherkin”, “Uromyces appendiculatus” for “Sphaerotheca fuliginea”

Septoria tritici = assay: Example D: in vivo preventive test on Septoria tritici (leaf spot on wheat); conditions: wheat plants, preventive spray, evaluated 24 days after inoculation
Protocol: as §2, with “wheat” for “gherkin”, “Septoria tritici” for “Sphaerotheca fuliginea”

Botrytis cinerea = assay: Example A: in vivo preventive test on Botrytis cinerea (grey mould); conditions: gherkin plants, preventive spray, evaluated 4 to 5 days after inoculation
Protocol: as §2, with “Botrytis cinerea” for “Sphaerotheca fuliginea”

Fusarium graminearum = type: in vivo; conditions: 500 ppm of active ingredient; barley, preventive; evaluated 5 days after inoculation
Phakopsora pachyrhizi = assay: Example L: Phakopsora test (soybeans)/preventive; type: in vivo; conditions: preventive, evaluated 7 days after inoculation
Puccinia recondita = assay: Example B: in vivo preventive test on Puccinia recondita (brown rust on wheat); conditions: wheat plants, preventive spray, evaluated 11 days after inoculation
Protocol: as §2, with “wheat” for “gherkin”, “Puccinia recondita” for “Sphaerotheca fuliginea”

Pyricularia oryzae = type: in vivo; conditions: 500 ppm of active ingredient; rice, preventive; evaluated 8 days after inoculation

Row | Compound | Eff. % [1] | Eff. % (Leptosphaeria nodorum) | Eff. % (Venturia inaequalis) | LogP [2] | Eff. % (Sphaerotheca fuliginea; 500 ppm of active ingredient) | Eff. % [3] | Eff. % (Pyrenophora teres; 500 ppm of active ingredient) | Eff. % (Fusarium culmorum) | Eff. % (Uromyces appendiculatus; 500 ppm of active ingredient) | Eff. % (Septoria tritici; 500 ppm of active ingredient) | Eff. % (Botrytis cinerea; 500 ppm of active ingredient) | Eff. % (Fusarium graminearum) | Eff. % (Phakopsora pachyrhizi; 100 ppm of active ingredient) | Eff. % (Puccinia recondita; 500 ppm of active ingredient) | Eff. % (Pyricularia oryzae) | Eff. % (Phakopsora pachyrhizi; 10 ppm of active ingredient) | further results
1 | CC1(C(O)(Cc2ccncc2Cl)Cn2cncn2)CC1 (stereo not shown) [Example I-49] | 100% | 100% | 100% | 1.57^[a] | 100% | 100% | 93% | 100% | 81% | 100% | 99% | 100% | 96% | 100% |  |  | 
2 | OC(Cc1nccnc1I)(Cn1cncn1)C1(Cl)CC1 (stereo not shown) [Example I-54] | 100% |  | 89% | 2.07^[a] | 100% | 100% |  |  | 100% | 100% | 100% | 100% | 99% | 97% | 78% |  | 
3 | OC(Cc1ccncc1F)(Cn1cncn1)C1(F)CC1 (stereo not shown) [Example I-19] | 100% | 100% |  | 0.91^[a] |  | 100% |  | 100% |  |  |  | 100% |  |  | 100% | 96% | Eff. % (Sphaerotheca fuliginea; 100 ppm of active ingredient): 100%; Eff. % (Pyrenophora teres; 100 ppm of active ingredient): 75%; Eff. % (Uromyces appendiculatus; 100 ppm of active ingredient): 98%; Eff. % (Septoria tritici; 100 ppm of active ingredient): 75%; Eff. % (Botrytis cinerea; 100 ppm of active ingredient): 100%; Eff. % (Puccinia recondita; 100 ppm of active ingredient): 88%
4 | OC(Cc1ccnc(Cl)c1Cl)(Cn1cncn1)C1(Cl)CC1 (racemic) [Example I-82] | 100% | 100% | 95% | 2.39^[a] | 100% | 100% | 97% |  | 100% | 100% | 100% | 100% | 100% | 98% | 100% |  | 
5 | OC(Cc1ccnnc1Cl)(Cn1cncn1)C1(Cl)CC1 (stereo not shown) [Example I-45] | 100% | 88% |  | 1.31^[a] |  | 100% |  | 100% |  |  |  | 100% |  |  |  | 93% | Eff. % (Sphaerotheca fuliginea; 100 ppm of active ingredient): 100%; Eff. % (Uromyces appendiculatus; 100 ppm of active ingredient): 100%; Eff. % (Septoria tritici; 100 ppm of active ingredient): 100%; Eff. % (Puccinia recondita; 100 ppm of active ingredient): 97%
6 | OC(Cc1c(Cl)cncc1Cl)(Cn1cncn1)C1(F)CC1 (racemic) [Example I-62] | 100% | 100% | 100% | 1.86^[a] | 100% | 100% | 100% | 83% | 100% | 100% | 100% | 100% | 99% | 98% |  |  | 
7 | OC(Cc1ccnc(Cl)c1F)(Cn1cncn1)C1(Cl)CC1 (stereo not shown) [Example I-60] | 100% | 100% | 100% | 2.02^[a] | 100% | 100% | 100% | 83% | 100% | 97% | 100% | 100% | 100% | 98% |  |  | 
8 | OC(Cc1ccnc(Cl)c1)(Cn1cncn1)C1(Cl)CC1 (stereo not shown) [Example I-39] | 100% | 100% |  | 1.76^[a] | 100% | 100% | 100% | 100% | 100% | 100% | 99% | 100% |  | 97% | 80% | 88% | 
9 | OC(CCc1ccc(Cl)cc1)(Cc1ccncc1Cl)Cn1cncn1 (racemic) [Example I-69] | 100% | 89% | 100% | 2.40^[a] | 100% |  | 93% |  | 100% | 100% |  | 71% | 91% | 98% |  |  | 
10 | CC(C)(F)C(O)(Cc1ccncc1Cl)Cn1cncn1 (racemic) [Example I-76] | 100% |  | 74% | 1.20^[a] | 100% | 100% | 79% |  | 100% | 100% | 100% | 86% | 100% | 100% | 71% |  | 
11 | CC(CF)(CF)C(O)(Cc1ccnc(Cl)c1F)Cn1cncn1 (stereo not shown) [Example I-61] | 100% | 75% |  | 1.87^[a] | 100% | 100% | 93% | 100% | 100% | 100% | 99% | 100% |  | 98% |  | 80% | 
12 | OC(Cc1cccc(Cl)n1)(Cn1cncn1)C1(Cl)CC1 (stereo not shown) [Example I-29] | 100% | 100% |  | 2.18^[a] | 100% | 100% | 95% | 100% | 100% | 100% | 94% | 100% |  | 97% | 70% |  | 
